Data on 1 compound can be found in patent US10676443B2, “Method for producing (4S)-4-[4-cyano-2-(methylsulfonyl)phenyl]-3,6-dimethyl-2-oxo-1-[3-(trifluoromethyl)phenyl]-1,2,3,4-tetrahydro pyrimidine-5-carbonitrile” (pH Pharma Co., Ltd., priority 2015, dated 2020).

Structures are written as SMILES.

This data set is described as follows: stability of crystal form (A) on storage, even at high humidity. The class given is physicochemical. To be noted: solid crystal form (A).

Turning to `CC1=C(C#N)[C@@H](c2ccc(C#N)cc2S(C)(=O)=O)N(C)C(=O)N1c1cccc(C(F)(F)F)c1` [crystal form (A), (S)-4-[4-cyano-2-(methylsulfonyl)phenyl]-3,6-dimethyl-2-oxo-1-[3-(trifluoromethyl)phenyl]-1,2,3,4-tetrahydropyrimidine-5-carbonitrile], the stability properties entry (even at high humidity) is “very good”. For the same compound, the “storage time with no loss of stability” value (storage) was “more than 3 years”.
